Measured values as given in PubChem BioAssay (NCI).
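All cell lines were grown in 96-well plates and treated with compound for 48 hours. At the GI50, growth is halved. TGI denotes the concentration required for complete inhibition of growth.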

How the values were obtained:
Test in all cases: NCI tumour cell line growth inhibition, 48 h
[1] = system: CCRF-CEM leukemia
[2] = system: LOX IMVI melanoma
[3] = system: NCI-H23 lung
[4] = system: IGROV1 ovarian
[5] = system: SF-539 CNS
[6] = system: MDA-MB-231 breast
[7] = system: SW-620 colon
[8] = system: UACC-257 melanoma
[9] = system: DU-145 prostate
[10] = system: A549 NSCLC

SMILES | GI50 [1] [µM] | TGI [1] [µM] | TGI [2] [µM] | TGI [3] [µM] | TGI [4] [µM] | TGI [5] [µM] | TGI [6] [µM] | TGI [7] [µM] | TGI [8] [µM] | TGI [9] [µM] | TGI [10] [µM] | GI50 [2] [µM] | GI50 [3] [µM] | GI50 [4] [µM] | GI50 [5] [µM] | GI50 [6] [µM] | GI50 [7] [µM] | GI50 [8] [µM] | GI50 [9] [µM] | GI50 [10] [µM]
C=C(C)C(=O)OC1CC2=CC(CC3(C)OC3C3OC(=O)C(=C)C13)OC2=O (stereo not drawn) | 1.63 | 5.59 | 8.99 | 30.9 | 38.8 | 18.3 | 37.1 | 5.03 | 13.7 | 51.8 | 36.5 | – | – | – | – | – | – | – | – | –
CN(c1ccc(NC(=O)Nc2ccc(OC(F)(F)F)cc2)cc1)c1ccnc(Nc2cccc(S(N)(=O)=O)c2)n1 | 0.412 | 25 | 3.97 | 6.25 | 7.45 | 5.47 | 15.1 | 6.62 | 9.14 | 6.46 | 9.83 | 0.725 | 2.15 | 1.73 | 0.591 | 4.92 | 2.93 | 3.77 | 3.26 | 2.68
CC(=O)Nc1ccccc1C=C1c2ccccc2-c2ccccc21 | – | > 100 | > 100 | > 100 | > 100 | 26.5 | 58.2 | > 100 | > 100 | > 100 | > 100 | – | – | – | – | – | – | – | – | –
CCc1ccccc1N1CCN(C(=O)c2cc(OC)c(OC)c(OC)c2)CC1 | – | > 100 | 29.3 | 23.3 | > 51.4 | 0.12 | > 100 | > 100 | > 73.2 | 0.715 | 72.4 | – | – | – | – | – | – | – | – | –
CC1=CCC(OC(=O)C(C)(C)CCC(O)(C(=O)OC2(C(C)C)CCC3(C)OC3C2)C(C)C)(C(C)C)CC1 (stereo not drawn) | 0.132 | 50 | 0.15 | 0.301 | 0.272 | 1.36 | 1.39 | 1.13 | 1.5 | 0.451 | 1.16 | 0.0764 | 0.113 | 0.0814 | 0.707 | 0.643 | 0.34 | 0.727 | 0.23 | 0.279
N=c1c2c(-c3ccccc3)c(-c3ccccc3)n(Cc3ccccc3)c2ncn1CCCO | 1.87 | 12.8 | 2.77 | 24.3 | 28.1 | 4.17 | 8.33 | 15.5 | 5.17 | 19.1 | 15.5 | 0.5 | 4.32 | 2.08 | 1.24 | 1.4 | 0.377 | 1.75 | 3.14 | 0.561
CN(C)c1ccc(-c2cc(-c3ccc(Nc4nc(Nc5ccccc5)nc(Nc5ccc(Cl)cc5)n4)cc3)nc(N)n2)cc1 | 3.73 | 23 | 46.2 | 53.5 | 62 | 23.5 | 23.4 | 21.8 | 37.4 | 21.4 | > 100 | 5.03 | 8.47 | 2.07 | 5.61 | 5.64 | 6.86 | 5.81 | 8.09 | 5.34
COC(=O)c1cc(-c2cc(OC)c(OC)c(OC)c2)[nH]c1N/N=C/c1c(Cl)cccc1Cl | 14.1 | > 100 | 17.3 | 7.78 | 16.8 | 5.47 | 22.1 | > 33.8 | 35.7 | 16.3 | 23.3 | 2.67 | 1.25 | 2.48 | 1.35 | 2.75 | 1.51 | 5.82 | 1.85 | 4.97
C[C@H]1[C@H](C)CC[C@]2(C(=O)N3CCN(C)CC3)CC[C@]3(C)C(=CC[C@@H]4[C@@]5(C)C/C(=C/c6cccnc6)C(=O)C(C)(C)[C@@H]5CC[C@]43C)[C@H]12 | 2 | 5.64 | 2.88 | 3.19 | 3.31 | 2.78 | 2.25 | 2.51 | 2.91 | 2.65 | 2.32 | 1.41 | 1.57 | 1.52 | 1.44 | 0.943 | 0.924 | 1.41 | 1.29 | 1.06
NC(=O)c1oc([N+](=O)[O-])c(-c2ccccc2)c1-c1ccccc1 | – | 38.9 | 29.1 | 35 | 31.5 | 38.1 | 38.6 | > 100 | 34.7 | 93.4 | 44.5 | – | – | – | – | – | – | – | – | –
COc1cc2c3c(n(CCCNCC(OC)OC)c(=O)c2cc1OC)-c1cc2c(cc1C3=O)OCO2 | < 0.01 | 1.8 | > 29.8 | 29.9 | > 74.4 | 24.9 | 20 | 24.2 | > 89.2 | 13.7 | 37.9 | 1.46 | 1.84 | 10.3 | 2.42 | 3.09 | 2.05 | 33.3 | 0.399 | 11.2
CCN1CCN(CC(=O)Nc2nc3ccc(NCc4ccc(Cl)cc4)cc3s2)CC1 | 2.43 | 8.22 | 3.17 | > 100 | 14.9 | 3.18 | 4.02 | 4.78 | 6.86 | > 100 | 8.01 | 1.68 | 3.25 | 3.37 | 1.69 | 1.89 | 2.1 | 2.65 | 7.31 | 2.76
Nc1ncnc2c1ncn2CC(O)C(=O)O (stereo not drawn) | – | > 100 | > 100 | > 100 | > 100 | > 100 | > 100 | > 100 | > 100 | > 100 | > 100 | – | – | – | – | – | – | – | – | –
NC1=C(Br)C(=O)c2ncccc2C1=O | – | 13.7 | 0.655 | 0.668 | 2.62 | 0.629 | 8.8 | 1.84 | 1.89 | 2.14 | 2.68 | – | – | – | – | 2.01 | – | – | 0.709 | –
